# Reference: US10172905B1, “Treatment of protein degradation disorders” (President and Fellows of Harvard College, priority 2005, dated 2019)
# “Also recorded” adds a separate entry of the source.
# What was measured:
# MM cell lines = assay: MTT growth inhibition / cytotoxicity assay in MM cell lines; type: cell-based, human; conditions: for growth inhibitory / cytotoxic effect as single agent: MM cell lines, MTT and 3H-thymidine uptake
# Experimental: The inhibitory effect of bortezomib and/or tubacin on MM cell growth was assessed by measuring 3-(4,5-dimethylthiazol-2-yl)-2,5-diphenyl tetrazolium bromide (MTT) dye absorbance, as described previously (33). […] All experiments were performed in quadruplicate.
# These cells were treated with tubacin (1.25-20 μM) for 48 h (FIG. 2A) and 72 h (FIG. 2B), and cytotoxicity was assessed by MTT assay, as describe.
# PBMCs = assay: MTT cytotoxicity assay in normal PBMCs; type: cell-based, human; conditions: PBMCs from normal volunteers, tubacin 2.5-20 μM, 48 h
# [1] = test system: JNK phosphorylation and caspase/PARP cleavage; assay: Western blotting for p21Cip1, p-JNK, caspases and PARP; type: cell-based, human
# Experimental: MM cells were cultured with Velcade and/or Tubacin; harvested; washed; and lysed using lysis buffer: 50 mM Tris-HCl (pH 7.4), 150 mM NaCl, 1% NP-40, 5 mM EDTA, 5 mM NaF, 2 mM Na3VO4, 1 mM PMSF, 5 μg/ml leupeptine, and 5 μg/ml aprotinin. Cell lysates were subjected to SDS-PAGE, transferred to PVDF membrane (Bio-Rad Laboratories, Hercules, Calif.), and immunoblotted with Abs against specific proteins.
# Cells cultured with tubacin and/or bortezomib were harvested; washed, and lysed using lysis buffer: 50 mM Tris-HCl (pH 7.4), 150 mM NaCl, 1% NP-40, 5 mM EDTA, 5 mM NaF, 1 mM Na3VO4, 1 mM PMSF, 5 μg/ml leupeptine, and 5 μg/ml aprotinin. Whole cell lysates were subjected to SDS-PAGE, transferred to nitrocellulose membrane (Bio-Rad Laboratories, Hercules, Calif.), and immunoblotted with specific Abs (31). Western blotting was done using anti-HDAC6, acetylated lysine, acetylated histone H3, acetylated histone H4, ubiquitin (Ub), phospho-SAPK (JNK), caspase-8 caspase-9, caspase-3, and PARP Abs (Cell Signaling, Beverly, Mass.); with anti-α-tubulin Ab (Santa Cruz Biotechnology, Santa Cruz, Calif.); as well as with anti-dynein Ab (Sigma, Saint Louis, Mo.). For immunoprecipitation, whole cell lysates were incubated with anti-Ub or dynein Abs overnight at 4° C., and then incubated with protein A/G PLUS-Agarose (Santa Cruz Biotechnology) for 2 h at 4° C., as in our prior study (31). Immunoprecipitates were then subjected to Western blotting for detection of HDAC6 and dynein.
# [2] = test system: MM patient plasma cells from BM (BMPCs); assay: MTT cytotoxicity assay in MM patient plasma cells; type: cell-based, human; conditions: tubacin 5 μM with bortezomib, 24 h
# Description: Dex-sensitive (MM.1S) and resistant (MM.1R) human MM cell lines were kindly provided by Dr. Steven Rosen (Northwestern University, Chicago, Ill.). RPMI8226 and U266 human MM cell lines were obtained from American Type Culture Collection (Rockville, Md.). IL-6 dependent INA-6 cell line was kindly provided by Dr M Gramatzki (Erlangen, Germany). Melphalan-resistant RPMI-LR5 and doxorubicin-resistant RPMI-Dox40 cell lines were provided by Dr William Dalton (Lee Moffitt Cancer Center, Tampa, Fla.). All MM cell lines were cultured in RPMI-1640 containing 10% fetal bovine serum (FBS, Sigma Chemical Co., St. Louis, Mo.), […] L-glutamine, 100 U/ml penicillin, and 100 μg/ml streptomycin (GIBCO, Grand Island, N.Y.). INA-6 cells were maintained with addition of IL-6 (1 ng/ml). MM patient plasma cells were purified from bone marrow (BM) aspirates by negative selection using an antibody cocktail (RosetteSep Separation System, StemCell Technologies, Vancouver, Canada), as previously described (31). The purity of MM cells was >90%, as confirmed by flow cytometric analysis using anti-CD138 Ab (BD Pharmingen, San Diego, Calif.). […]
# The inhibitory effect of bortezomib and/or tubacin on MM cell growth was assessed by measuring 3-(4,5-dimethylthiazol-2-yl)-2,5-diphenyl tetrazolium bromide (MTT) dye absorbance, as described previously (33). […]
# breast cancer cells = assay: Synergy of bortezomib and tubacin in breast cancer; type: cell-based
# [3] = test system: rat astrocytes and striatal neurons; assay: Russell body formation in rat astrocytes and striatal neurons; type: cell-based; conditions: previous experiments, comparable concentrations
smiles,measurement,setting,value
O=C(CCCCCCC(=O)Nc1ccc([C@H]2O[C@@H](CSc3nc(-c4ccccc4)c(-c4ccccc4)o3)C[C@@H](c3ccc(CO)cc3)O2)cc1)NO [tubacin],IC50,"MM cell lines; Homo sapiens, 72 h, drug-sensitive and -resistant MM cell lines",5 to 20 µM
same,growth inhibitory / cytotoxic effect as single agent,MM cell lines,"marked anti-proliferative, proapoptotic effects; also recorded: dose-dependent growth inhibitory effect"
same,growth inhibitory / cytotoxic effect as single agent,MM cell lines; listed as Tubacin,cytotoxic
same,effect of tubacin on bortezomib (Velcade)-induced cytotoxicity,"MM cell lines; MM.1S and RPMI8226 cells, 24 h, MTT",synergistically enhances bortezomib-induced cytotoxicity; also recorded: Synergy; also recorded: potently sensitizes myeloma cells to subtoxic concentrations of bortezomib; also recorded: significantly (p<0.01) augmented cytotoxicity triggered by Velcade; also recorded: synergistic anti-tumor activity
same,cytotoxicity of tubacin in PBMCs,PBMCs,no cytotoxicity; also recorded: No adverse effect
same,phosphorylation of JNK and caspase/PARP cleavage,"[1]; MM.1S cells, tubacin 5 μM and/or bortezomib 5 nM, 24 h",does not trigger phosphorylation of JNK or caspase/PRAP cleavage
same,induction of p21Cip1 induced by bortezomib,"[1]; tubacin 5 μM + bortezomib 5 nM, MM.1S, 24 h",inhibits induction of p21^Cip1 induced by bortezomib
same,induction of p21Cip1,"[1]; tubacin 5 μM alone, MM.1S, 24 h",does not trigger induction of p21^Cip1
same,caspase-8/PARP cleavage,"[1]; tubacin 10 μM, 0-24 h, MM.1S and RPMI8226 cells",time-dependent caspase-8/PARP cleavage is induced; also recorded: induces cytotoxicity via activation of caspases
same,effect of tubacin on bortezomib (Velcade)-induced cytotoxicity in patient MM cells,[2],markedly augmented by tubacin; also recorded: significantly (p<0.01) augments cytotoxicity triggered by Velcade; also recorded: synergistically enhances bortezomib-induced cytotoxicity
same,synergy with bortezomib in breast cancer,breast cancer cells,synergy
same,Russell body formation,[3],features suggestive of Russell body formation
